Experiment [1] has as its target T1, Cam kinase II (Homo sapiens, UniProt Q13557).
T1 construct: expressed in transfected cells; host or cells: HEK293
Description: TR-FRET measurement of the phosphorylation of a generic protein substrate by Cam kinase II in co-transfected HEK293 cells. It counts as cell-based. To be noted: FIG. 2; ionomycin 1 μM, 5 min; HEK293 co-transfected with substrate plasmid and CamKII delta. The protocol: 8000 cells HEK293 are either transfected with increasing quantities of plasmid coding for the substrate alone (Identical to Example 1), or co-transfected with the same quantities of plasmid coding for the substrate and 25 ng of CamKII 6-pcDNA 3.1 (plasmid coding for Cam kinase II). The transfection is carried out as described in Example 1.
The cells are then cultured for 48 hours at 37° C. in DMEM medium, comprising 10% fcetal calf serum and 1% antibiotic and antifungal, then for 16 hours in the same medium without serum.
The cells are stimulated for 5 min in the presence of ionomycin 1 μM (Sigma), and lysed as described above.
The phosphorylation of the protein substrate is detected as described in Example 1.
For orientation: TR-FRET usually uses a lanthanide donor and a delayed reading to cut background.

Experiment [2] deals with T2, Akt1 (Homo sapiens, UniProt P31749).
T2 construct: expressed in transfected cells; host or cells: HEK293
T2 sequence (P31749 whole entry, species assumed): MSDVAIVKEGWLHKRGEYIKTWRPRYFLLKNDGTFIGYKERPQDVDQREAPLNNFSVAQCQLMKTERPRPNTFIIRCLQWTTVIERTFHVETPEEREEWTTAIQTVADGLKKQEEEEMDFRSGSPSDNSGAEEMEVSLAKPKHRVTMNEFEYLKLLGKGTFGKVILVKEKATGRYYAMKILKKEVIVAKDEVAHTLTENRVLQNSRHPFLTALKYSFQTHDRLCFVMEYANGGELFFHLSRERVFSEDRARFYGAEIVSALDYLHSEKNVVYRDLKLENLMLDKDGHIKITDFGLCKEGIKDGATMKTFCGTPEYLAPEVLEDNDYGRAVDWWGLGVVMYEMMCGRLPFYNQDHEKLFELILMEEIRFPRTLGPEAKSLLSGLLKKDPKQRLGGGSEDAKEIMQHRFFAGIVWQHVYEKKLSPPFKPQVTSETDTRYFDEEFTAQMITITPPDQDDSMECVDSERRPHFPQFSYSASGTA
Description: TR-FRET measurement of the phosphorylation of a generic protein substrate by Akt1 in co-transfected HEK293 cells, with total protein substrate. The class given is cell-based. The protocol: 8000 HEK293 cells (ATCC) are either transfected with increasing quantities of plasmid coding for the substrate alone, or co-transfected with the same quantities of plasmid coding for the substrate and 25 ng of Akt1-pcDNA 3.1 (Invitrogen Corp. Cat No. V790-20) The co-transfection is carried out in the presence of Lipofectamine 2000 (Invitrogen corp. Cat No. 11668-019) and OPTI-MEM medium (Gibco Cat No. 31985).
The cells are then cultured for 48 hours at 37° C. in 25 μl of DMEM medium (Gibco Cat No. 11965-092), to which 10% FCS (Hyclone Cat No. SV30014-03) and 1% antibiotic and antifungal (Gibco Cat No. 15240-062) are added in 384-well plates (Proxiplate 384, Perkin-Elmer Cat No. 6006280).
The cells are lysed in 50 mM Hepes buffer, pH7, containing 0.1% BSA, 20 mM EDTA, 0.8 M potassium fluoride and 2% TRITON X-100® (octylphenol ethyelene oxide condensate)). This same buffer contains 1.8 ng of phosphospecific antibodies (STK antibody, Upstate Cat No. 35-002) conjugated with the donor (europium cryptate) and 40 ng of anti-FLAG conjugated with the acceptor (cross-linked allophycocyanin, XL 665, CIS bio international Cat No. 61 FG2XLA).
The plate is incubated for 1 hour at ambient temperature before time-resolved reading.
The FRET signals are measured on an Acquest 384 fluorimeter (Molecular Device) in TR-FRET mode at 620 nm (emission wavelength of rare earth cryptate) and 665 nm (emission wavelength of allophycocyanin) after excitation by a flash lamp with a bandwidth comprised between 330 and 380 nm. The ratio between the fluorescence emitted at 665 nm (fluorescence of the acceptor) and the fluorescence emitted at 620 nm (fluorescence of the donor) (Ratio 665/620) represents the FRET occurring between the donor (europium cryptate) and the acceptor (Allophycocyanin). […]
The cells are co-transfected and cultured as described in Example 1. […] The cells are then lysed and the phosphorylated protein substrate detected as described in Example 1.
In parallel, in a second well, cells are treated in identical manner. After lysis, the total quantity of protein substrate is measured using an anti-c-myc antibody coupled with europium cryptate (2.9 ng/well) (CIS bio international Cat No. 61MYCKLA) and an anti-FLAG antibody coupled with allophycocyanin (40 ng/well).
The cells are co-transfected with a plasmid coding for the protein substrate labelled by the c-myc and flag tags and with a plasmid coding for Akt1, as described in Example 1. […] In this case the lysate is first placed in the presence of a phosphospecific antibody, coupled with tris-bipyridine europium cryptate (CIS bio international, formula below), and an anti-FLAG antibody coupled with allophycocyanin (in the same quantities as those described in Example 1). […]

T1 sequence (Q13557 whole entry): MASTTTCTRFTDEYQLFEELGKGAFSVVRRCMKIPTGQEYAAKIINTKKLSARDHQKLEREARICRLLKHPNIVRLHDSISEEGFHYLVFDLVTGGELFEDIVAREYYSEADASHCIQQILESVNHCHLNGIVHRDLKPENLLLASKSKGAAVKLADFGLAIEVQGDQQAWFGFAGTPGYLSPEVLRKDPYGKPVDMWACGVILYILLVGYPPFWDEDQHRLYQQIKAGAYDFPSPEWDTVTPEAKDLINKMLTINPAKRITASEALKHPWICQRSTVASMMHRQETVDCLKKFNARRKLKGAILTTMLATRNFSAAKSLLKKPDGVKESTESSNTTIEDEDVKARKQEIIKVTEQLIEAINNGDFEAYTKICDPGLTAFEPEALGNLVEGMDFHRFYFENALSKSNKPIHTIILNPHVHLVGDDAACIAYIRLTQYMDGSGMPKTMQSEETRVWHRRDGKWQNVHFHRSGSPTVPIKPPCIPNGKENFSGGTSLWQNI

For `C[C@H](CCC(=O)O)C[C@H](C)C[C@H](C)C(=O)/C=C(\O)[C@H](C)C[C@H](C)C/C=C/[C@@H](C)[C@@H](O)[C@@H](C)[C@@H](O)C[C@@H]1CC[C@@](C)([C@H]2CC[C@@](C)([C@@H](C)O)O2)O1` [ionomycin], in experiment [1], the “signal of phosphorylated protein substrate after stimulation” value was “much greater than in its absence”.

In the case of `CN[C@@H]1C[C@H]2O[C@@](C)([C@@H]1OC)n1c3ccccc3c3c4c(c5c6ccccc6n2c5c31)C(=O)NC4` [staurosporine], the “signal corresponding to the phosphorylated protein substrate” value in experiment [2] (FIG. 3, HEK293 co-transfected with substrate plasmid and Akt1, 1 hour incubation with increasing concentrations, separate wells) was “reduces with increasing concentrations”. Besides, the “signal corresponding to the total protein substrate” value in experiment [2] (FIG. 3, anti-c-myc cryptate/anti-FLAG allophycocyanin, second well, increasing concentrations) is listed as “remains constant whatever the dose of inhibitor”. Besides, in experiment [2] (FIG. 4, 0.2 nM, 20 nM, 2 μM, separate wells or single well with FRET suppressing agent), the “signal corresponding to the phosphorylated protein substrate (not standardized)” value is reported as “sensitive to staurosporine only in the case where it is added to the measurement medium at high concentrations (2 μM)”. For the same compound, the “ratio of phosphorylated protein substrate: total protein substrate” value in experiment [2] (FIG. 6, signal standardized by total protein substrate signal, 0.2 nM, 20 nM, 2 μM) was “inhibition of the phosphorylation of the protein substrate”.

Values taken from US8663928B2, “Method for the detection of post-translational modifications” (CIS BIO International, priority 2006, dated 2014).
